These molecules were tested on chronic arthritis of adjuvant (assay: Anti-inflammatory activity, chronic arthritis of adjuvant (preventative treatment)). Conditions: Rattus norvegicus, 408 h; male rats, oral, day 0 to day before kill on day 17; dose reducing increase in volume of hind paws by 50% (table, section A); read-out: DA50 (the source's name).
Assay type: in vivo
Procedure: A. Anti-inflammatory activity chronic arthritis of adjuvant (preventative treatment)
(§1) The injection of adjuvant of "Freund" type into a hind paw causes in rats the rapid appearance of a primary inflammatory lesion in this paw and then after a latent period of 13 to 15 days, causes a secondary arthritis affecting in particular the other hind paw. The test was carried out on male rats aged from 42 to 50 days which received by intraplantar injection 0.1 ml of adjuvant of "Freund"type (suspension in vaseline oil of 6 mg per ml. of killed mycobacterium butyricum). The animals received the product studied orally from day 0 (day of the injection of the adjuvant) until the day before they were killed which occured on day 17. The arthritic control animals and normal control animals received only the vehicle. The assessment criteria of the activity of the substances studied were the increase in the volume of hind paws injected (primary and secondary inflammation) and not injected (secondary inflammation) in comparison with the average volume of paws corresponding to the normal controls. The DA50 was determined, that is to say, the dose which reduced the increase in volume of the hind paws of the treated animals in comparison to those of the control animals by 50% and the results are reported in the following Table.
C. Anti-inflammatory activity chronic arthritis of adjuvant (preventative treatment)
as §1, with “"Freund" type” for “"Freund"type”, “say” for “say,”, “50%.” for “50% and the results are reported in the following Table.”
With `COCC(O)c1nc2c(C(F)(F)F)cccc2c(O)c1C(=O)Nc1nccs1` (stereo not shown) [Example 1, 4-hydroxy-2-(1-hydroxy-2-methoxy-ethyl)-N-(2-thiazolyl)-8-(trifluoromethyl)-3-quinoline carboxamide] the ED50 was 2 mg/kg.
For `O=C(Nc1nccs1)c1c(C(O)CO)nc2c(C(F)(F)F)cccc2c1O` (stereo not shown) [Example 2, 2-(1,2-dihydroxyethyl)-4-hydroxy-N-(2-thiazolyl)-8-trifluoromethyl-3-quinoline carboxamide], the ED50 was 0.7 mg/kg.
In the case of `CC(O)C(O)c1nc2c(C(F)(F)F)cccc2c(O)c1C(=O)Nc1nccs1` (stereo not shown) [Example 3, 2-(1,2-dihydroxypropyl)-4-hydroxy-N-(2-thiazolyl)-8-trifluoromethyl-3-quinoline carboxamide], the ED50 is reported as 3 mg/kg.
For `CCC(=O)OCC(OC(=O)CC)c1nc2c(C(F)(F)F)cccc2c(O)c1C(=O)Nc1nccs1` (stereo not shown) [Example 4, 2-[1,2-bis-(1-oxopropoxy)ethyl]-4-hydroxy-N-(2-thiazolyl)-8-trifluoromethyl-3-quinolinecarboxamide], the ED50 was 1 mg/kg.
With `CCC(=O)OC(COC)c1nc2c(C(F)(F)F)cccc2c(O)c1C(=O)Nc1nccs1` (stereo not shown) [Example 5, 2-[2-methoxy-1-(1-oxopropoxy)-ethyl]-4-hydroxy-N-(2-thiazolyl)-8-trifluoromethyl-3-quinoline carboxamide] the ED50 was 5 mg/kg.
`CCC(=O)OC(CC)c1nc2c(C(F)(F)F)cccc2c(O)c1C(=O)Nc1nccs1` (stereo not shown) [Example 12, 4-hydroxy-2-[1-(1-oxopropoxy)-propyl]-N-(2-thiazolyl)-8-(trifluoromethyl)-3-quinoline carboxamide] showed an ED50 of 0.8 mg/kg.
In the case of `CCC(OC(=O)CN)c1nc2c(C(F)(F)F)cccc2c(O)c1C(=O)Nc1nccs1` (stereo not shown) [Example 16, 1-[4-hydroxy-3-[(2-thiazolylamino)-carbonyl]-8-(trifluoromethyl)-2quinolinyl]-propyl amino acetate dichlorohydride], the ED50 is reported as 1 mg/kg.
With `CCCC(=O)OC(CC)c1nc2c(C(F)(F)F)cccc2c(O)c1C(=O)Nc1nccs1` (stereo not shown) [Example 17, 1-[4-hydroxy-3-[(2-thiazolylamino)-carbonyl]-8-trifluoromethyl)-2quinolinyl]-propyl butanoate] the ED50 was 1.3 mg/kg.
`CCC(OC(=O)c1cc2ccccc2[nH]1)c1nc2c(C(F)(F)F)cccc2c(O)c1C(=O)Nc1nccs1` (stereo not shown) [Example 28, 1-[4-hydroxy-3-{[(2-aminothiazolyl)-carbonyl]-8-trifluoromethyl2-quinolinyl]-propyl]1H-indole-2-carboxylate] was tested, and the ED50 was 2 mg/kg.

Same assay, conditions: Rattus norvegicus, 408 h; male rats, oral, day 0 to day before kill on day 17; dose reducing increase in volume of hind paws by 50% (text, section C); read-out: DA50 (the source's name)
With `CCC(O)c1nc2c(C(F)(F)F)cccc2c(O)c1C(=O)Nc1nccs1` (single isomer, unassigned; isomer b) [Step A of Example 27 (B-isomer), 4-hydroxy-2-(1-hydroxypropyl)-N-(2-thiazolyl)-8-trifluoromethyl-3-quinoline carboxamide isomer B] the ED50 was 0.5 mg/kg.

Same assay, conditions: male rats, oral, day 0 to day before kill on day 17; dose reducing increase in volume of hind paws by 50% (table, section A); 24480 min
`CCCc1ncc(C(=O)OC(CC)c2nc3c(C(F)(F)F)cccc3c(O)c2C(=O)Nc2nccs2)s1` (stereo not shown) [Example 29] showed a DA50 of 2 mg/kg.

These molecules were tested on stomachs (assay: Gastric ulceration effect). Conditions: female rats, oral, seven hours; graphically determined; maximum ulceration index is 300.
Assay type: in vivo
Procedure: B. Gastric ulceration effect
The test was done on female rats weighing 120 to 150 g on a water diet for 24 hours at the time of the treatment divided into random groupd. The products were administered orally and seven hours later, the animals were killed and their stomachs opened along the great curvature, washed in an isotonic solution of sodium chloride and spread apart by wiping with a cotton pad soaked in the same solution. The degree of ulcerous lesions, in number and in size, was estimated on a scale from 0 to 3 by two observers unware of the treatments. The notation 1 indicated the presence of an obvious ulcer or of several punctiform ulcers.
To take in account also the percentage of rats having ulcers (degree of ulceration greater than 0.5, notation attributed to a hyperemia or to Petechiae often encountered in a control which had fasted) an ulceration index was calculated for each group according to the formula [formula]
The dose corresponding to an ulceration index of 100 or DU 100 was graphically determined (the maximum ulceration index is 300).
With `CCC(=O)OC(CC)c1nc2c(C(F)(F)F)cccc2c(O)c1C(=O)Nc1nccs1` (stereo not shown) [Example 12, 4-hydroxy-2-[1-(1-oxopropoxy)-propyl]-N-(2-thiazolyl)-8-(trifluoromethyl)-3-quinoline carboxamide] the “DU 100 (dose corresponding to an ulceration index of 100)” value was “greater than 300 mg/kg”.
In the case of `CCCC(=O)OC(CC)c1nc2c(C(F)(F)F)cccc2c(O)c1C(=O)Nc1nccs1` (stereo not shown) [Example 17, 1-[4-hydroxy-3-[(2-thiazolylamino)-carbonyl]-8-trifluoromethyl)-2quinolinyl]-propyl butanoate], the “DU 100 (dose corresponding to an ulceration index of 100)” value is reported as “greater than 300 mg/kg”.

Source: US4988708A, “Analgesic and anti-inflammatory 4-OH quinoline carboxylic acid derivatives” (Roussel Uclaf, priority 1984, dated 1991)
